The target of one experiment is HDAC-1 (Homo sapiens, UniProt Q13547). The experiment can be described thus: Enzyme inhibitory activity, HD1. The experiment is classed as biochemical. The conditions noted are these: read-out: IC50 HD 1.
A further experiment concerns the target HDAC-4 (Homo sapiens, UniProt P56524). The experiment can be described thus: Enzyme inhibitory activity, HD4. The class given is biochemical.
For a further experiment, the target named is T1, HDAC-6 (Homo sapiens, UniProt Q9UBN7).
T1 sequence (Q9UBN7 1-1215): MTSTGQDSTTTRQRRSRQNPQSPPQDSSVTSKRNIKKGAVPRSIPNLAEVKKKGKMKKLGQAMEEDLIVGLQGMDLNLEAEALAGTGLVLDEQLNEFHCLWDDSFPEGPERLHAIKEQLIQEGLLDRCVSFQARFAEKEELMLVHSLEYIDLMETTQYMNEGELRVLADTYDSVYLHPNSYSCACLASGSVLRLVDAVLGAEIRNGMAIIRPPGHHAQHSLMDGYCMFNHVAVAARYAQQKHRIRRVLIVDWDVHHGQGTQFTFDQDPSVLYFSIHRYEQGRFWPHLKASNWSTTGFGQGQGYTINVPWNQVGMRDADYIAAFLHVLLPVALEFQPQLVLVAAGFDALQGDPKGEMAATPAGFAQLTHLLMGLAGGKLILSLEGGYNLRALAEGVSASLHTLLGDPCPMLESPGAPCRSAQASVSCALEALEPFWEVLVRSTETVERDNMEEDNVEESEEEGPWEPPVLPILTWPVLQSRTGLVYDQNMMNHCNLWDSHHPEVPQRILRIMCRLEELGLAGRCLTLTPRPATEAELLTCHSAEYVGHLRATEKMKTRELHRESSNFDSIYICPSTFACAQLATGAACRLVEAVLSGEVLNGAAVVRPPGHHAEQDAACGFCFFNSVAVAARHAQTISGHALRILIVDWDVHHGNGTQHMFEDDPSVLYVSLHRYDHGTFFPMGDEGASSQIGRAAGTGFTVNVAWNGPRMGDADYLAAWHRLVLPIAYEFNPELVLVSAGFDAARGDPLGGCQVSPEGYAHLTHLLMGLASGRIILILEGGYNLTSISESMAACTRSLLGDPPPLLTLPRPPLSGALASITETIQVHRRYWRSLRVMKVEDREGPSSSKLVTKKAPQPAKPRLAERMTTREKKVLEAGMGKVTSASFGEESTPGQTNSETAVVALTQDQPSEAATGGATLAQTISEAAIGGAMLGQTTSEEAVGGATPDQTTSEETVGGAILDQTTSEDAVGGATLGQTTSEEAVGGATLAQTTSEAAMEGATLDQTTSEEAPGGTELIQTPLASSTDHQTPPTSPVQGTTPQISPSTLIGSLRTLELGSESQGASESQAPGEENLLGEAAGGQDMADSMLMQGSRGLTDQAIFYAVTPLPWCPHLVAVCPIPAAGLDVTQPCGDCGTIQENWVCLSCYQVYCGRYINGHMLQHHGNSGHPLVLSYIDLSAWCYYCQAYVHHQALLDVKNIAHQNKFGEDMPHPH
Kind of experiment: Enzyme inhibitory activity, HD6. The class given is biochemical. The settings on record: read-out: IC50 HD 6.

The target of the next experiment is T2, HDAC-8 (Homo sapiens, UniProt Q9BY41).
T2 sequence (Q9BY41 1-377): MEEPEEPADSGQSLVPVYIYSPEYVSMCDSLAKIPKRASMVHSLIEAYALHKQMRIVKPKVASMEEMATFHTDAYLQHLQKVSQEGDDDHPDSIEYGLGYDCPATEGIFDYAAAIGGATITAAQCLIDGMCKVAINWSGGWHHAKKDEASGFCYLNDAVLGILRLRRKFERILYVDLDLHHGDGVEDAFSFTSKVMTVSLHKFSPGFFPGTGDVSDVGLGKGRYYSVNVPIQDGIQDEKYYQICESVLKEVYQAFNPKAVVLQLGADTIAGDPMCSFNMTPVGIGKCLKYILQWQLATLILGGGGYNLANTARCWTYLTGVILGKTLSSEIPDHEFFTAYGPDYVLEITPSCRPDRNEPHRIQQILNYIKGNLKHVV
The experiment can be described thus: Enzyme inhibitory activity, HD8. The experiment is classed as biochemical. The settings on record: read-out: IC50 HD 8.

Experiment [1] concerns colon cancer cells HCT116. The experiment can be described thus: MTT assay, HCT116. The class given is cell-based, human. The settings on record: Homo sapiens, HCT-116; 72 hours. How it is done:
(§1) Effects of HDAC isotype-specific small molecule inhibitors on growth inhibition of various human cancer cells (from ATCC) in vitro were determined by MTT assays. Briefly, cells seeded in 96-well plates were incubated for 72 hours at 37° C. in a 5% CO2 incubator. MTT (Sigma) was added at a final concentration of 0.5 mg/ml and incubated with the cells for 4 hours before an equal volume of solubilization buffer (50% N,N-dimethylformamide, 20% SDS, pH 4.7) was added onto cultured cells. After overnight incubation, solubilized dye was quantified by colorimetric reading at […] using a reference at 630 nM. OD values were converted to cell numbers according to a standard growth curve of the relevant cell line. The concentration which reduces cell numbers to 50% of those of DMSO-treated cells is determined as MTT IC50. In Table 4, IC50s of several HDAC7 or HDAC8 inhibitors in MTT assays in various human cancer cell lines were listed. They include colon cancer cells HCT116 and SW48, lung cancer cells A549 and H446, breast cancer cells MCF-7 and MDAmb231, a prostate cancer cell line Du145 and a bladder cancer cell line T24.

The test system of experiment [2] is prostate cancer cell line Du145. The experiment can be described thus: MTT assay, Du145. The experiment is classed as cell-based. The conditions noted are these: Homo sapiens, DU-145; 72 hours. How it is done:
as §1

The subject of another experiment is colon cancer cells SW48. The experiment can be described thus: MTT assay, SW48. The experiment is classed as cell-based. The settings on record: Homo sapiens, 72 hours, read-out: MTT IC50 SW 48. Here is the method:
as §1
In general terms: Tetrazolium dyes change colour on reduction, which living cells bring about.

The term IC50 denotes the concentration that inhibits the measured activity by half.

Chain of HDAC-4 (P56524 whole entry): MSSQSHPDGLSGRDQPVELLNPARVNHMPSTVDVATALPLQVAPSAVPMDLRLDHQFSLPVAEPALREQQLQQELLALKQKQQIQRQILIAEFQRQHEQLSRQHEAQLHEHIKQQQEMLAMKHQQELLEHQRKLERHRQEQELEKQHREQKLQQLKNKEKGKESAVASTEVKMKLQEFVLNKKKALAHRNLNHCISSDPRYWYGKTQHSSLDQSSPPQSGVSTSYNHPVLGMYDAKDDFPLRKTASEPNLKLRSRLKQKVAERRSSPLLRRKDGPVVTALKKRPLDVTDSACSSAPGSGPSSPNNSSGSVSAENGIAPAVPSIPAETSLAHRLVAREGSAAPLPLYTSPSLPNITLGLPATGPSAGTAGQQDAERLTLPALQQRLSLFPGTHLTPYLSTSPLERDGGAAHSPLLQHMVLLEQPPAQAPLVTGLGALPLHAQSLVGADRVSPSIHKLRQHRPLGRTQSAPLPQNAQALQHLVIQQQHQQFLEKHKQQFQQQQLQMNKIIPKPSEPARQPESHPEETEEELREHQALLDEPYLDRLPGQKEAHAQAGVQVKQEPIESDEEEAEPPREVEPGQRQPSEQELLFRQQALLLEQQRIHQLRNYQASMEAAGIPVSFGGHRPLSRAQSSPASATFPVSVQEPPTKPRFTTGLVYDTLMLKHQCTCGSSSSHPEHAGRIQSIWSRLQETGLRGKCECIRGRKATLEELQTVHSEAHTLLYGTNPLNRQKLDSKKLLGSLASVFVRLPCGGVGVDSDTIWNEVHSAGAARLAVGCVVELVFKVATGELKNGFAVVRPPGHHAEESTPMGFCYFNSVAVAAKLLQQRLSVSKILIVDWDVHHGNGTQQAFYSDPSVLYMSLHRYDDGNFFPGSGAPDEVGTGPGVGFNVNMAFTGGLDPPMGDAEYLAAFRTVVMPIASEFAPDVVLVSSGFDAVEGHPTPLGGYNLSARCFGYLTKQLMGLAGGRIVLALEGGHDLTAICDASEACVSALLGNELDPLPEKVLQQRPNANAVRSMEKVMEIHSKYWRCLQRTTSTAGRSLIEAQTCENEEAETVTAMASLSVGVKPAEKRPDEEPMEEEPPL
Chain of HDAC-1 (Q13547 whole entry): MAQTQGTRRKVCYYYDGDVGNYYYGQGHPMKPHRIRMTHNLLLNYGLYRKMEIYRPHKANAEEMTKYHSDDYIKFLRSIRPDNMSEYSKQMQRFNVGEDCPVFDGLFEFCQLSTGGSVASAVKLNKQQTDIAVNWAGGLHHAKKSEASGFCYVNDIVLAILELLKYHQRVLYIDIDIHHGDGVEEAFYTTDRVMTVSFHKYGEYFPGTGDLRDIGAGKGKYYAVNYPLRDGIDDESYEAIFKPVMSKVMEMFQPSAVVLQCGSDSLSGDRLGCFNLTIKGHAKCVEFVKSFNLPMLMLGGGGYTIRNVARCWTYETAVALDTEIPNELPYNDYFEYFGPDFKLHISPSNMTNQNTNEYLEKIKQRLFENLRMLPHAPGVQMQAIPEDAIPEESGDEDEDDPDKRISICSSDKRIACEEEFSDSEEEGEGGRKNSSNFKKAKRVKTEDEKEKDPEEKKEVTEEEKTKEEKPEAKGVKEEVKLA

On to `COc1ccc(-c2ccnc(NCc3ccc(C(=O)Nc4ccccc4N)cc3)n2)cc1OC` [Compound 21, N-(2-Amino-phenyl)-4-{[4-(3,4-dimethoxy-phenyl)-pyrimidin-2-ylamino]-methyl}-benzamide], for which the IC50 on HDAC-1 was 4000 nM; against HDAC-4, greater than 50000 nM; on HDAC-6, greater than 50000 nM; on HDAC-8, greater than 50000 nM; in experiment [1], 100 nM; in experiment [2] it was 500 nM. Further, the IC50 with colon cancer cells SW48 turned out to be 800 nM.
For `Cc1ccc(S(=O)(=O)Nc2ccc(/C=C/C(=O)Nc3ccccc3N)cc2)cc1` [Compound 5, N-(2-Aminophenyl)-3-[4-(4-methylbenzenesulfonylamino)-phenyl]-acrylamide], the half-inhibitory concentration (IC50) at HDAC-6 is greater than 50000 nM; on HDAC-8 it was greater than 50000 nM; in experiment [1], 4000 nM; in experiment [2] it was 2000 nM; in the experiment on colon cancer cells SW48 it was 10000 nM.
Take `COc1ccc(NCc2ccc(C(=O)Nc3ccccc3N)cc2)cc1OC` [Compound 17, N-(2-Aminophenyl)-4-[(3,4-dimethoxyphenylamino)-methyl]-benzamide]: the IC50 at HDAC-1 was 2000 nM; at HDAC-4 it was greater than 50000 nM; at HDAC-6 it was greater than 50000 nM; at HDAC-8, greater than 50000 nM; in experiment [1] it was 400 nM; in experiment [2], 2000 nM. Further, in the experiment on colon cancer cells SW48, the half-maximal inhibitory concentration (IC50) was found to be 2000 nM.
Regarding `Nc1ccccc1NC(=O)c1ccc(CSc2nc3ccccc3[nH]2)cc1` [Compound 16, N-(2-Amino-phenyl)-4-(1H-benzimidazol-2-ylsulfanylmethyl)-benzamide], the IC50 on HDAC-1 is 300 nM; against HDAC-4, 29000 nM; on HDAC-6, greater than 50000 nM; in experiment [1] it was 200 nM; in experiment [2] it was 700 nM; with colon cancer cells SW48 it was 2000 nM.

The values above are taken from patent publication US20040072770A1, “Methods for specifically inhibiting histone deacetylase-7 and 8” (priority 2002, published 2004).
